Measurements from patent US9492468B2, “Methods and compositions for treatment of acute heart failure” (PERICOR THERAPEUTICS, INC., priority 2008, dated 2016).
Where a name gives a salt, the structure may show the parent alone.

Tested on: TnI
Assay: Plasma troponin I (sandwich ELISA), dose escalation study
Assay type: in vivo, dog
Experimental: Eight heart failure dogs described in Example 1 were used. Seven of 8 dogs underwent two studies, one with active drug GP-531 tartrate and one with vehicle (placebo) and 1 of 8 dogs underwent only one active drug GP-531 study. The order of active drug and placebo was randomized and performed about one week apart. In 6 of 8 dogs, after baseline hemodynamic, and ventriculographic measurements, vehicle was administered as a continuous intravenous infusion for one hour. At the end of one hour, the active drug GP-531 tartrate was administered in 3 escalating dose of continuous intravenous infusion with each dose maintained for one hour. At the end of the last drug dose, infusion was stopped and a washout period of one hour was instituted. The same infusion rates and times between doses were used when vehicle studies were performed. At the end of each hour, hemodynamic and angiographic measurements were made. Venous blood samples were obtained at baseline and at one hour after each dose. Blood samples (at least 10 mL) were centrifuged at 3000 rpm for 10 minutes and plasma withdrawn and placed in cryostorage tubes and stored upright at −20° C. for future use. In 2 of 8 dogs, active drug was administered as bolus followed by a constant infusion for 3 hours as noted below.
Plasma biomarkers were measured in Groups I and II. Troponin I (TnI) was determined in plasma based on the principle of the double antibody sandwich enzyme-linked immunosorbent assay (ELISA) (Hirano, T., et al., Immunol Today 1990, 11:443-449) and n-terminal brain natriuretic peptide (NT-pro-BNP) based on competitive ELISA (Bonow, R. O. Circulation 1996, 93:1946-1950). Both biomarkers were assayed using commercially available assay kits. Kits for NT proBNP and TnI were purchased from ALPCO Diagnostics, Salem, N.H. Using standard curves and software, the concentration of each biomarker was expressed as ng/ml for TnI and fmol/ml for NT-proBNP.

Structure (SMILES)	Plasma TnI (Group I HF dogs n=3, 1 h washout after 30/100/300 μg/kg/min)	Plasma TnI (Group I HF dogs n=3, iv 30 μg/kg/min, 1 h)	Plasma TnI (Group I HF dogs n=3, iv 100 μg/kg/min, 1 h)	Plasma TnI (Group I HF dogs n=3, iv 300 μg/kg/min, 1 h)	Plasma TnI (Group II HF dogs n=3, 1 h washout after 3/10/30 μg/kg/min)	Plasma TnI (Group II HF dogs n=3, iv 3 μg/kg/min, 1 h)	Plasma TnI (Group II HF dogs n=3, iv 10 μg/kg/min, 1 h)	Plasma TnI (Group II HF dogs n=3, iv 30 μg/kg/min, 1 h)	Effect on plasma TnI (Group I HF dogs, all doses (30, 100, 300 μg/kg/min), vs baseline)	Effect on plasma TnI (Group II HF dogs, 30 μg/kg/min, not statistically significant)
NC(=O)c1ncn(C2OC(CNCc3ccccc3)C(O)C2O)c1N [GP-531, 5-amino-1-β-D-(5-benzylamino-5-deoxy-1-β-D-ribofuranosyl)imidazole-4 carboxamide]	0.36 ± 0.03 pg/mL	0.17 ± 0.03 pg/mL	0.13 ± 0.02 pg/mL	0.15 ± 0.05 pg/mL	0.31 ± 0.05 pg/mL	0.51 ± 0.05 pg/mL	0.50 ± 0.15 pg/mL	0.19 ± 0.05 pg/mL		
NC(=O)c1ncn(C2OC(CNCc3ccccc3)C(O)C2O)c1N (stereo not shown) [GP-531 tartrate]									decreased significantly	tended to decrease at the highest dose
